Five molecules from PubChem BioAssay (NCI) can be followed below.

Common to all, as to experiment: inhibition of tumour cell growth, NCI panel, 48 h
Test [1] deals with A498 renal.
Test [2] deals with BT-549 breast.
Test [3] has as its system DU-145 prostate.
Test [4] deals with EKVX NSCLC.
For test [5], the system named is HCC-2998 colon.
For test [6], the system named is HOP-62 NSCLC.
Test [7] deals with HS 578T breast.
In test [8] the test system is K-562 leukemia.
Test [9] relates to KM12 colon.
The test system of test [10] is M14 melanoma.
The subject of test [11] is MCF7 breast.
Test [12] deals with MDA-MB-231 breast.
Test [13] deals with SF-268 CNS.
Test [14] has as its system SF-295 CNS.
The test system of test [15] is SK-MEL-5 melanoma.
Test [16] deals with SK-OV-3 ovarian.
For test [17], the system named is SNB-19 CNS.
Test [18] relates to TK-10 renal.
Test [19] has as its system UO-31 renal.

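These data come from cells grown in 96-well plates and exposed to compound for 48 hours at five concentrations. Definition used: TGI = concentration required for complete inhibition of growth.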

With `O=C(O)c1ccccc1NC(c1ccccc1)c1ccc2cccnc2c1O` (stereo not given), the TGI in [1] is > 100 µM; in [2], 45.1 µM; in test [3] it was > 100 µM; in test [4], > 47.5 µM; in [5], > 100 µM; in test [6] it was > 100 µM. Moreover, the TGI in test [7] was > 68.1 µM; in test [8], 53.3 µM; in test [9], > 100 µM; in test [10], 38.8 µM; in [11], > 62.4 µM; in [12], > 62.4 µM. For the same molecule, the TGI in test [13] is > 43.5 µM; in test [14], > 100 µM; in [15], 24.5 µM; in test [16], > 100 µM; in [17], > 100 µM; in [18] it was 51.1 µM. Also, in test [19], the TGI was 23.8 µM.

Turning to `CN(C)c1ccc(/C=c2/c3ccccc3n3c2c2ccccc2[n+]3C)cc1`, the TGI in test [1] stood at 5.14 µM; in [2] it was 1.03 µM; in test [3], 4.19 µM; in test [4] it was 23.5 µM; in test [5], 3.33 µM; in [6] it was 16.2 µM. The TGI in test [7] worked out at 4.42 µM; in test [8], 4.71 µM; in [9], 10.7 µM; in [10] it was 1.69 µM; in [11] it was 5.46 µM; in [12], 2.42 µM. The TGI in test [13] is 1.98 µM; in test [14], 13.1 µM; in test [15], 0.659 µM; in test [16], 14 µM; in [17] it was 4.76 µM; in test [18], 3.36 µM. For the same molecule, the TGI in test [19] came out at 3.9 µM.

As for `CCC(C#N)(c1ccccc1)N(CCc1ccccc1)C(=O)c1ccccc1` (stereo not given), the TGI is 79.6 µM in [1]; > 100 µM in [2]; > 100 µM in test [3]; > 100 µM in test [4]; > 100 µM in test [5]; 50.8 µM in test [6]. For the same molecule, the TGI in test [7] was 69.6 µM; in test [8], > 100 µM; in test [9] it was > 100 µM; in [10], > 100 µM; in [11], > 100 µM; in [12] it was 52.2 µM. Moreover, the TGI in [13] was > 100 µM; in [14], > 100 µM; in test [15] it was > 100 µM; in [16] it was 82.7 µM; in test [17], > 100 µM; in test [18], > 100 µM. For the same molecule, in [19], the TGI is > 100 µM.

In the case of `CCOC(=O)CN1C(=O)c2c(c(C)n(-c3ccccc3)c2C)C1=O`, the TGI in [1], in [2], in test [3], in test [4], in test [5] and in [6] was > 100 µM throughout. Further, the TGI in [7], in test [8], in test [9], in [10], in test [11] and in test [12] was > 100 µM in each case. In addition, the TGI in test [13], in [14], in test [15], in test [16], in test [17] and in [18] was > 100 µM each time. Besides, the TGI in [19] is > 100 µM.

On to `CO/N=C(\C)c1ccc(Nc2c3ccccc3nc3occc23)cc1`, for which the TGI in [1] was found to be 9.94 µM; in test [2], 21.3 µM; in [3], 10.3 µM; in test [4], 39.9 µM; in test [5] it was 1.94 µM; in test [6], 16.2 µM. Also, the TGI came out at 10.3 µM in test [7]; 37.3 µM in test [8]; 12.5 µM in test [9]; 9.59 µM in test [10]; 1.59 µM in test [11]; 10.2 µM in test [12]. Besides, the TGI in [13] was 18.6 µM; in [14], 1.98 µM; in [15], 6.53 µM; in test [16], 17.2 µM; in test [17] it was 45.1 µM; in test [18], 18.4 µM. Further, in [19], the TGI is 25.1 µM.
